Laboratory results from patent US20240408167A1, “COMPOSITION FOR TREATING OCULAR DISEASES CONTAINING PEPTIDE” (Encuragen Inc., priority 2023, published 2024).

What was measured:
[1] = Stability according to pH, HPLC residual amount at 40±2° C.; assay type: physicochemical; conditions: for Residual amount: 40±2° C.
Method: To evaluate the stability of eye drops according to pH, a 10 mM pH buffer [10 mM sodium phosphate buffer+0.02% sodium azide (pH 5.5, pH 6.0, pH 6.5, pH 7.0) or a 10 mM PBS+WELGENE fresh media 10×PBS (pH 7.4)] was mixed with (PEG)-BHD1028 and the resulting mixture was incubated at 40±2° C., and then the stability was evaluated through an HPLC analysis. As a result of the evaluation, there was no significant difference in the residual amount between the formulation prepared at pH 6.5, which was set as the target pH of the eye drops, and the formulation prepared at 7.0, which was the average pH of the eyes, as shown in Table 4 below.

rabbit DED model [2] = test: Schirmer tear test (STT), rabbit DED model; assay type: in vivo
Method: (§1) The rabbit DED model was induced by locally administrating 0.1% benzalkoniumchloride (BAC) drops (Sigma, St. Louis, MO, USA) twice a day (8 a.m. and 4 p.m.). Before the BAC treatment, the control group (baseline, naive) underwent standard dry eye clinical tests such as the Schirmer tear test (STT), TBUT, and corneal staining score (CSS) test. After the BAC treatment, the induction of dry eye syndrome was confirmed, and the test substance was administered for 10 days while maintaining the induction of dry eye syndrome. […] The test substance was locally applied bis in die (BID) to both eyes.
The tear secretion was measured for 20 seconds by contacting a cotton thread containing phenol red (Zone-Quick™; Oasis Medical, Inc., Glendora, CA, USA) to the conjunctival sac on the lateral canthus of the mouse eye. After measuring the length using a Nikon SMZ1500 microscope, the length substituted to the prescribed formula, and the value was converted to volume. The tear production of the rabbits was measured by a modified Schirmer tear test using Whatman 41 filter paper strips (Tianjin Jingming New Technology Development Co., Ltd., Tianjin, China) on Day 0, Day 5, and Day 10. Eye examination of the rabbits was performed under anesthesia. The anesthesia was performed under sedation by performing intramuscular injection of xylazine (3 mg/kg, Rompun®; Bayer Korea, Korea) and intramuscular injection of 10 mg/kgtiletamine/zolazepam (Zoletil®, Virbac Laboratories, Carros, France). After adding 1 drop of proparacaine HCl 0.5% (Alcaine®, Alcon Korea Ltd., Seoul, Korea), excess tears and eye drops were removed with Weck-cel® […]. The wet length (mm) of the paper strip was read after 5 minutes.

rabbit DED model [3] = test: Corneal fluorescein staining (CFS) score, rabbit DED model; assay type: in vivo; conditions: for dynamic slope of the CFS score change: from Day 1 to Day 10
Method: as §1
The subjects were evaluated by corneal staining, and the abnormal findings of the eyelids, cornea, and conjunctiva were recorded. After dropping 1 μL of the 1% fluorescent dye solution and washing with saline solution, and the cornea was observed under a slit-lamp microscope and scored to evaluate the degree of epithelial damage (degree of fluorescent staining).

[4] = system: apoptotic cells in cornea and conjunctiva; test: Apoptotic cells by TUNEL assay, EDE mouse model; assay type: in vivo; conditions: 0.001%, 0.01%, 0.1%
Method: The eyes and appendages from each group were excised, fixed in the modified Davidson's solution, and embedded in paraffin, and the tissue sections were TUNEL-stained. In each section, the degree of apoptosis in the cornea and conjunctiva was measured using ZEN (Zeiss, Oberkochen, Germany) and Image J v1.51j8 (NIH, Bethesda, MD, USA) software programs.
As DED progresses, the epithelium of the anterior segment of the eye undergoes pathological deformations, including functional damages and structural changes such as abnormal tear sebum secretion and pathogenic cell death. Apoptotic cells that were present in an equal area of the cornea and conjunctiva of one eye per group were quantified by the TUNEL assay.

pI value of the API = assay type: physicochemical
corneal epithelium = test: Corneal epithelial thickness after H&E staining, EDE rabbit model; assay type: in vivo; conditions: all treatment groups (0.1%, 0.2%, 0.4%), vs vehicle, p<0.001
Text: The extracted eyes were washed with phosphate-buffered saline (PBS), fixed in the modified Davidson's solution, and embedded in paraffin (Histocore Arcadia, Leica, Wetzlar, Germany). Afterwards, paraffin blocks were sliced into sections of a ˜6 μm thickness, mounted on microscope slides (HistoCore AUTOCUT, Leica, Germany), air dried, and stained with hematoxylin-eosin. The stained tissue slides were imaged, and data were obtained using an optical microscope/digital slide scanner (Axio Scan.Z1, Zeiss, Oberkochen, Germany). Image measurement was performed using ZEN (Zeiss, Germany) and ImageJ (NIH, Bethesda, […], USA) software programs.
The pathophysiology of dry eye syndrome includes pathological changes in the epithelium such as erosion, cicatrix, scar, corneal neovascularization and, in severe conditions, corneal perforation. The protective effect of (PEG)-BHD1028 on the epithelium was evaluated by measuring the corneal thickness using ZEN (Zeiss, Germany) microscopy software program after H&E tissue staining.

[5] = rabbit, 0.1% group, Baseline (before BAC treatment)
[6] = rabbit, 0.1% group, Day 0 (EDE), before treatment
[7] = rabbit, 0.2% group, Baseline (before BAC treatment)
[8] = rabbit, 0.2% group, Day 0 (EDE), before treatment
[9] = rabbit, 0.4% group, Baseline (before BAC treatment)
[10] = rabbit, 0.4% group, Day 0 (EDE), before treatment

NH2-Tyr-Tyr-Phe-Ala-Tyr-His-Pro-Asn-Ile-Pro-Gly-Leu-Tyr-Tyr-Phe-COOH (H-YYFAYHPNIPGLYYF-OH; also: PEGylated, site not given here (mPEG), acetate salt) [(PEG)-BHD1028]
Residual amount ([1]; PBS (pH 7.4), Day 0): 100.0% | Residual amount ([1]; PBS (pH 7.4), Day 1): 97.1% | Residual amount ([1]; PBS (pH 7.4), Day 3): 92.3% | Residual amount ([1]; PBS (pH 7.4), Day 7): 89.9% | Residual amount ([1]; pH 5.5, Day 0): 100.0% | Residual amount ([1]; pH 5.5, Day 1): 98.4% | Residual amount ([1]; pH 5.5, Day 3): 97.2% | Residual amount ([1]; pH 5.5, Day 7): 96.6% | Residual amount ([1]; pH 6.0, Day 0): 100.0% | Residual amount ([1]; pH 6.0, Day 1): 99.8% | Residual amount ([1]; pH 6.0, Day 3): 99.0% | Residual amount ([1]; pH 6.0, Day 7): 98.1% | Residual amount ([1]; pH 6.5, Day 0): 100.0% | Residual amount ([1]; pH 6.5, Day 1): 99.7% | Residual amount ([1]; pH 6.5, Day 3): 98.7% | Residual amount ([1]; pH 6.5, Day 7): 97.3% | Residual amount ([1]; pH 7.0, Day 0): 100.0% | Residual amount ([1]; pH 7.0, Day 1): 99.2% | Residual amount ([1]; pH 7.0, Day 3): 98.7% | Residual amount ([1]; pH 7.0, Day 7): 94.9% | most stable pH within the pH range of normal tears ([1]; pH range 6.5 to 7.6): 6.5 | STT-2 (rabbit DED model [2]; rabbit DED, 0.1% BID, Day 5): 4.67 ± 0.65 mm | STT-2 (rabbit DED model [2]; rabbit DED, 0.1% BID, Day 10): 6.50 ± 0.87 mm | STT-2 (rabbit DED model [2]; rabbit DED, 0.2% BID, Day 5): 3.33 ± 0.51 mm | STT-2 (rabbit DED model [2]; rabbit DED, 0.2% BID, Day 10): 7.50 ± 0.99 mm | STT-2 (rabbit DED model [2]; rabbit DED, 0.4% BID, Day 5): 4.33 ± 0.45 mm | STT-2 (rabbit DED model [2]; rabbit DED, 0.4% BID, Day 10): 6.67 ± 1.02 mm | STT-2 (rabbit DED model [2]; [5]): 6.67 ± 0.96 mm | STT-2 (rabbit DED model [2]; [6]): 3.00 ± 1.22 mm | STT-2 (rabbit DED model [2]; [7]): 8.50 ± 1.39 mm | STT-2 (rabbit DED model [2]; [8]): 3.33 ± 1.28 mm | STT-2 (rabbit DED model [2]; [9]): 9.17 ± 1.23 mm | STT-2 (rabbit DED model [2]; [10]): 3.33 ± 1.22 mm | CFS (rabbit DED model [3]; rabbit DED, 0.1% BID, Day 5): 7.17 ± 1.21 score | CFS (rabbit DED model [3]; rabbit DED, 0.1% BID, Day 10): 6.67 ± 0.56 score | CFS (rabbit DED model [3]; rabbit DED, 0.2% BID, Day 5): 6.83 ± 0.64 score | CFS (rabbit DED model [3]; rabbit DED, 0.2% BID, Day 10): 6.17 ± 0.55 score | CFS (rabbit DED model [3]; rabbit DED, 0.4% BID, Day 5): 5.67 ± 0.38 score | CFS (rabbit DED model [3]; rabbit DED, 0.4% BID, Day 10): 3.83 ± 0.64 score | CFS (rabbit DED model [3]; [5]): 0.00 ± 0.00 score | CFS (rabbit DED model [3]; [6]): 6.67 ± 0.30 score | CFS (rabbit DED model [3]; [7]): 0.00 ± 0.00 score | CFS (rabbit DED model [3]; [8]): 9.17 ± 0.37 score | dynamic slope of the CFS score change (rabbit DED model [3]; rabbit, 0.2%): −0.42 | CFS (rabbit DED model [3]; [9]): 0.00 ± 0.00 score | CFS (rabbit DED model [3]; [10]): 8.00 ± 0.62 score | mean CFS score lower than that of the 0.05% cyclosporine treated animals (rabbit DED model [3]; rabbit, 0.4%, Day 10, p=0.0558): approximately 46% | dynamic slope of the CFS score change (rabbit DED model [3]; rabbit, 0.4%): −0.33 | antiapoptotic effect (TUNEL) in the cornea and conjunctiva [4]: dose-dependent antiapoptotic effect | pI value (pI value of the API): approximately 6.6 | mean corneal epithelial thickness (corneal epithelium): significantly greater than that of the vehicle treated animals
